Consider 21 molecules from ChEMBL document CHEMBL5608234, “Heat Shock Protein 90 Interactome-Mediated Proteolysis Targeting Chimera (HIM-PROTAC) Degrading Glutathione Peroxidase 4 to Trigger Ferroptosis” (J Med Chem, 2024).

In data set [1] the test system is HT-1080. As to the kind of experiment: HIM-PROTAC activity at GPX4/HSP90/E3 ligase in human HT-1080 cells assessed as reduction in GPX4 level at 1 uM incubated for 24 hrs by Western blotting analysis. It is filed as cell-based. (In western blotting, separated proteins are transferred to a membrane and probed.)
Data set [2] relates to HT-1080. As to the kind of experiment: Cytotoxicity against human HT-1080 cells incubated for 48 hrs by CCK-8 assay. It is filed as functional, cell-based. The note with it: HT-1080, 48 h.
In data set [3] the test system is HT-1080. As to the kind of experiment: HIM-PROTAC activity at GPX4/HSP90/E3 ligase in human HT-1080 cells assessed as reduction in GPX4 level at 1 uM incubated for 24 hrs in presence of 2-chloro-N-(3-chloro-4-methoxyphenyl)-N-(2-oxo-2-(phenethylamino)-1-(thiophen-2-yl)ethyl)acetamide by Western blotting analysis. It is filed as cell-based.
Data set [4] is described as follows: Toxicity in BALB/c mouse xenografted with human HT-1080 cells assessed as animal death at 25 mg/kg, ip administered once daily measured after 10 days in presence of 2-chloro-N-(3-chloro-4-methoxyphenyl)-N-(2-oxo-2-(phenethylamino)-1-(thiophen-2-yl)ethyl)acetamide. In kind it is organism-based. The note with it: in vivo, 240 h, time 10 day. A general note: Xenograft models place foreign cells or tissue in a host animal.

Data set [5] deals with HT-1080. As to the kind of experiment: HIM-PROTAC activity at GPX4/HSP90/E3 ligase in human HT-1080 cells assessed as reduction in GPX4 level at 0.1 to 3 uM incubated for 24 hrs by Western blotting analysis. The note with it: dose 0.1-3 µM. In kind it is cell-based.
Data set [6] concerns HT-1080. As to the kind of experiment: HIM-PROTAC activity at GPX4/HSP90/E3 ligase in human HT-1080 cells assessed as reduction in GPX4 level at 0.3 uM incubated for 24 hrs by Western blotting analysis relative to control. In kind it is cell-based. The arrangement: scale not given: the % may be the effect or the level left.
Data set [7] is described as follows: Toxicity in BALB/c mouse xenografted with human HT-1080 cells assessed as animal death at 25 mg/kg, ip administered once daily measured after 10 days in presence of 6-chloro-9-((4-methoxy-3,5-dimethylpyridin-2-yl)methyl)-9H-purin-2-amine. The note with it: in vivo, 240 h, time 10 day. In kind it is organism-based.
Data set [8] has as its system HT-1080. As to the kind of experiment: HIM-PROTAC activity at GPX4/HSP90/E3 ligase in human HT-1080 cells assessed as reduction in GPX4 level at 1 uM incubated for 24 hrs in presence of 6-chloro-9-((4-methoxy-3,5-dimethylpyridin-2-yl)methyl)-9H-purin-2-amine by Western blotting analysis. It is filed as cell-based.
Data set [9] relates to HT-1080. As to the kind of experiment: Induction of ferroptosis in human HT-1080 cells assessed as fold increase in cytotoxic IC50 incubated for 48 hrs in presence of Fer-1 by CCK-8 assay. It is filed as functional. (Tetrazolium dyes change colour on reduction, which living cells bring about.)
The subject of data set [10] is HT-1080. As to the kind of experiment: Cytotoxicity against human HT-1080 cells incubated for 48 hrs in presence of Fer-1 by CCK-8 assay. It is filed as functional, cell-based. The note with it: HT-1080, 48 h.

The structures appear in SMILES notation. Calls of active or inactive are those of the source. No cut-off for these calls is given here.

Usually IC50 stands for the concentration that inhibits the measured activity by half. As to `COc1c(C)cnc(Cn2cnc3c(Cl)nc(N)nc32)c1C` [BIIB021], the result in the data set on HT-1080 [1] and in the data set with HT-1080 [3] was inactive. The same molecule showed an IC50 in the data set on HT-1080 [2] of 16200 nM. Besides, in data set [4], the Activity result is “Toxic”.

As to `COc1c(C)cnc(Cn2cnc3c(NCCOCCOCCOCCOCCOCCn4cc(COc5ccc(N(C(=O)CCl)C(C(=O)NCCc6ccccc6)c6cccs6)cc5Cl)nn4)nc(N)nc32)c1C` (centres undefined), the half-maximal inhibitory concentration (IC50) in the data set on HT-1080 [2] is 3500 nM. Moreover, the outcome in the data set on HT-1080 [5] was Active.

Molecule `COc1c(C)cnc(Cn2cnc3c(N4CCC(N5CCN(C(=O)Cn6cc(COc7ccc(N(C(=O)CCl)C(C(=O)NCCc8ccccc8)c8cccs8)cc7Cl)nn6)CC5)CC4)nc(N)nc32)c1C` (centres undefined) gave a half-maximal inhibitory concentration (IC50) in the data set with HT-1080 [2] of 1400 nM. Moreover, in the data set with HT-1080 [5], the outcome was Active.

`COc1c(C)cnc(Cn2cnc3c(NCCOCCOCCOCCOCCNC(=O)Cn4cc(COc5ccc(N(C(=O)CCl)C(C(=O)NCCc6ccccc6)c6cccs6)cc5Cl)nn4)nc(N)nc32)c1C` (centres undefined) displayed a half-inhibitory concentration (IC50) in the data set with HT-1080 [2] of 15200 nM. For the same molecule, the result in the data set on HT-1080 [5] was Active.

In the case of `COc1c(C)cnc(Cn2cnc3c(NCCOCCOCCNC(=O)Cn4cc(COc5ccc(N(C(=O)CCl)C(C(=O)NCCc6ccccc6)c6cccs6)cc5Cl)nn4)nc(N)nc32)c1C` (centres undefined), the IC50 in the data set with HT-1080 [2] was found to be 2600 nM. In addition, the outcome with HT-1080 [5] was Active.

As to `Nc1ncnc2c1nc(Sc1cc3c(cc1I)OCO3)n2CCCCCNC(=O)Cn1cc(COc2ccc(N(C(=O)CCl)C(C(=O)NCCc3ccccc3)c3cccs3)cc2Cl)nn1` (centres undefined), in the data set with HT-1080 [6], the Activity was below 50%. In addition, the IC50 in the data set on HT-1080 [2] worked out at 1300 nM. In the data set with HT-1080 [5], the outcome was Active.

In the data set with HT-1080 [2], `COc1c(C)cnc(Cn2cnc3c(NCCOCCOCCOCCNC(=O)Cn4cc(COc5ccc(N(C(=O)CCl)C(C(=O)NCCc6ccccc6)c6cccs6)cc5Cl)nn4)nc(N)nc32)c1C` (centres undefined) had a half-inhibitory concentration (IC50) of 3200 nM. Besides, the result in the data set on HT-1080 [5] was Active.

For `COc1c(C)cnc(Cn2cnc3c(NCCC4CCN(C(=O)Cn5cc(COc6ccc(N(C(=O)CCl)C(C(=O)NCCc7ccccc7)c7cccs7)cc6Cl)nn5)CC4)nc(NC(C)=O)nc32)c1C` (centres undefined), the midpoint of inhibition with HT-1080 [2], the IC50, lay at 15500 nM. The result in the data set on HT-1080 [5] was Active.

With `Nc1ncnc2c1nc(Sc1cc3c(cc1I)OCO3)n2CCNC(=O)CCCCCNC(=O)Cn1cc(COc2ccc(N(C(=O)CCl)C(C(=O)NCCc3ccccc3)c3cccs3)cc2Cl)nn1` (centres undefined), in the data set on HT-1080 [2], 41500 nM corresponded to half-maximal inhibition (IC50). Besides, the result in the data set with HT-1080 [5] was Active.

For the molecule `COc1ccc(N(C(=O)CCl)C(C(=O)NCCc2ccccc2)c2cccs2)cc1Cl` (centres undefined), the outcome in the data set with HT-1080 [1] and in the data set with HT-1080 [8] was inactive. Also, the IC50 was 760 nM with HT-1080 [2] and 2000 nM in the data set on HT-1080 [10]. Further, the Activity result in data set [7] is “Toxic”. For the same molecule, the “fold change (FC)” value in the data set with HT-1080 [9] amounted to 3.

`Nc1ncnc2c1nc(Sc1cc3c(cc1I)OCO3)n2CCNC(=O)CCNC(=O)Cn1cc(COc2ccc(N(C(=O)CCl)C(C(=O)NCCc3ccccc3)c3cccs3)cc2Cl)nn1` (centres undefined): in the data set on HT-1080 [2], the concentration for half-maximal inhibition (IC50) came to 56100 nM. Also, the outcome with HT-1080 [5] was Active.

In the data set with HT-1080 [2], `COc1c(C)cnc(Cn2cnc3c(N4CCC(NC(=O)Cn5cc(COc6ccc(N(C(=O)CCl)C(C(=O)NCCc7ccccc7)c7cccs7)cc6Cl)nn5)CC4)nc(N)nc32)c1C` (centres undefined) registered an IC50 of 2400 nM. In addition, the result in the data set with HT-1080 [5] was Active.

`COc1c(C)cnc(Cn2cnc3c(NCCOCCOCCn4cc(COc5ccc(N(C(=O)CCl)C(C(=O)NCCc6ccccc6)c6cccs6)cc5Cl)nn4)nc(N)nc32)c1C` (centres undefined) displayed an IC50 with HT-1080 [2] of 1000 nM. For the same molecule, in the data set on HT-1080 [5], the result was Active.

With `COc1c(C)cnc(Cn2cnc3c(N4CCC(C5CCN(C(=O)Cn6cc(COc7ccc(N(C(=O)CCl)C(C(=O)NCCc8ccccc8)c8cccs8)cc7Cl)nn6)CC5)CC4)nc(N)nc32)c1C` (centres undefined), in the data set on HT-1080 [2], inhibition was half-maximal at 980 nM (IC50). Besides, in the data set with HT-1080 [5], the outcome was Active.

`Nc1ncnc2c1nc(Sc1cc3c(cc1I)OCO3)n2CCOCCOCCNC(=O)Cn1cc(COc2ccc(N(C(=O)CCl)C(C(=O)NCCc3ccccc3)c3cccs3)cc2Cl)nn1` (centres undefined): in the data set with HT-1080 [2], the 50% inhibitory concentration (IC50) came to 1500 nM. The result with HT-1080 [5] was Active.

Regarding `O=C1CCC(N2C(=O)c3cccc(NCCOCCOCCOCCn4cc(COc5ccc(N(C(=O)CCl)C(C(=O)NCCc6ccccc6)c6cccs6)cc5Cl)nn4)c3C2=O)C(=O)N1` (centres undefined), the result with HT-1080 [1] was Active. This molecule registered a concentration for half-maximal inhibition (IC50) in the data set with HT-1080 [2] of 490 nM.

For the molecule `COc1c(C)cnc(Cn2cnc3c(N4CCN(C(=O)Cn5cc(COc6ccc(N(C(=O)CCl)C(C(=O)NCCc7ccccc7)c7cccs7)cc6Cl)nn5)CC4)nc(N)nc32)c1C` (centres undefined), half-maximal inhibition with HT-1080 [2] (IC50) required 4100 nM. In the data set on HT-1080 [5], the result was Active.

`COc1c(C)cnc(Cn2cnc3c(NCCCCNC(=O)Cn4cc(COc5ccc(N(C(=O)CCl)C(C(=O)NCCc6ccccc6)c6cccs6)cc5Cl)nn4)nc(N)nc32)c1C` (centres undefined) had an IC50 in the data set on HT-1080 [2] of 1100 nM. Moreover, the result in the data set on HT-1080 [5] was Active.

`Nc1ncnc2c1nc(Sc1cc3c(cc1I)OCO3)n2CCNC(=O)Cn1cc(COc2ccc(N(C(=O)CCl)C(C(=O)NCCc3ccccc3)c3cccs3)cc2Cl)nn1` (centres undefined) gave an IC50 in the data set on HT-1080 [2] of 900 nM. Besides, the outcome with HT-1080 [5] was Active.

Take `COc1c(C)cnc(Cn2cnc3c(NCCOCCNC(=O)Cn4cc(COc5ccc(N(C(=O)CCl)C(C(=O)NCCc6ccccc6)c6cccs6)cc5Cl)nn4)nc(N)nc32)c1C` (centres undefined): in the data set on HT-1080 [2], the IC50 is 2400 nM. Besides, the result in the data set on HT-1080 [5] was Active.

In turn, `NCCC1CCN(C(=O)Cn2cc(COc3ccc(N(C(=O)CCl)C(C(=O)NCCc4ccccc4)c4cccs4)cc3Cl)nn2)CC1` (centres undefined) yielded a concentration for half-maximal inhibition (IC50) in the data set on HT-1080 [2] of 8300 nM. For the same molecule, in the data set on HT-1080 [5], the result was Active.
